# In ChEMBL document CHEMBL6078713, “Synthesis and mechanistic studies of 4-aminoquinoline-Isatin molecular hybrids and Schiff's bases as promising antimicrobial agents” (Eur J Med Chem, 2025):
# The source made the active and inactive calls. The calls are words filed in the database; no cut-off is given here.
# Assays:
# Escherichia coli [1] = assay: Antibacterial activity against Escherichia coli MTCC 443 assessed as diameter of zone of inhibition at 500 ug/ml by agar disk diffusion method; assay type: functional; details: read-out: DIZ
# Salmonella typhi [2] = assay: Antibacterial activity against Salmonella typhi assessed as diameter of zone of inhibition at 500 ug/ml by agar disk diffusion method; assay type: functional, Salmonella enterica subsp. enterica serovar Typhi; details: Salmonella enterica, read-out: DIZ
# Bacillus subtilis [3] = assay: Bactericidal activity against Bacillus subtilis MTCC 736 assessed as inhibition of bacterial growth incubated overnight; assay type: functional
# Pseudomonas aeruginosa [4] = assay: Bactericidal activity against Pseudomonas aeruginosa MTCC 2453 assessed as inhibition of bacterial growth incubated overnight; assay type: functional
# Bacillus subtilis [5] = assay: Antibacterial activity against Bacillus subtilis MTCC 736 assessed as diameter of zone of inhibition at 0.5 times MIC incubated overnight by disk diffusion method; assay type: functional
# Staphylococcus aureus [6] = assay: Antibacterial activity against Staphylococcus aureus MTCC 902 assessed as diameter of zone of inhibition at 0.5 times MIC incubated overnight by disk diffusion method; assay type: functional
# Pseudomonas aeruginosa [7] = assay: Antibacterial activity against Pseudomonas aeruginosa MTCC 2453 assessed as diameter of zone of inhibition at 0.5 times MIC incubated overnight by disk diffusion method; assay type: functional
# Staphylococcus aureus [8] = assay: Antibacterial activity against Staphylococcus aureus MTCC 902 assessed as diameter of zone of inhibition at MIC incubated overnight by disk diffusion method; assay type: functional
# Pseudomonas aeruginosa [9] = assay: Antibacterial activity against Pseudomonas aeruginosa MTCC 2453 assessed as diameter of zone of inhibition at MIC incubated overnight by disk diffusion method; assay type: functional
# Pseudomonas aeruginosa [10] = assay: Antibacterial activity against Pseudomonas aeruginosa MTCC 2453 assessed as diameter of zone of inhibition at 2 times MIC incubated overnight by disk diffusion method; assay type: functional
# Escherichia coli [11] = assay: Synergistic antibacterial activity against Escherichia coli MTCC 443 assessed as inhibition of bacterial growth incubated overnight in presence of ciprofloxacin by serial dilution based spectrophotometer; assay type: functional
# Bacillus subtilis [12] = assay: Synergistic antibacterial activity against Bacillus subtilis MTCC 736 assessed as inhibition of bacterial growth incubated overnight in presence of ciprofloxacin by serial dilution based spectrophotometer; assay type: functional
# Salmonella typhi [13] = assay: Synergistic antibacterial activity against Salmonella typhi assessed as fractional inhibitory concentration index incubated overnight in presence of ciprofloxacin by microdilution checkerboard assay; assay type: functional, Salmonella enterica subsp. enterica serovar Typhi
# Escherichia coli [14] = assay: Antibacterial activity against Escherichia coli clinical isolate ECJH1 assessed as diameter of zone of inhibition by disk diffusion assay; assay type: functional
# Escherichia coli [15] = assay: Antibacterial activity against Escherichia coli clinical isolate ECJH2 assessed as diameter of zone of inhibition by disk diffusion assay; assay type: functional
# Escherichia coli [16] = assay: Antibacterial activity against Escherichia coli clinical isolate ECJH3 assessed as diameter of zone of inhibition by disk diffusion assay; assay type: functional
# Escherichia coli [17] = assay: Antibacterial activity against Escherichia coli clinical isolate ECJH4 assessed as diameter of zone of inhibition by disk diffusion assay; assay type: functional
# Escherichia coli [18] = assay: Antibacterial activity against Escherichia coli clinical isolate ECJH5 assessed as diameter of zone of inhibition by disk diffusion assay; assay type: functional
# Escherichia coli [19] = assay: Antibacterial activity against Escherichia coli clinical isolate ECJH6 assessed as diameter of zone of inhibition by disk diffusion assay; assay type: functional
# Escherichia coli [20] = assay: Antibacterial activity against Escherichia coli clinical isolate ECJH7 assessed as diameter of zone of inhibition by disk diffusion assay; assay type: functional
# Escherichia coli [21] = assay: Antibacterial activity against Escherichia coli clinical isolate ECJH8 assessed as diameter of zone of inhibition by disk diffusion assay; assay type: functional
# Escherichia coli [22] = assay: Antibacterial activity against Escherichia coli clinical isolate ECJH9 assessed as diameter of zone of inhibition by disk diffusion assay; assay type: functional
# Escherichia coli [23] = assay: Antibacterial activity against Escherichia coli clinical isolate ECJH10 assessed as diameter of zone of inhibition by disk diffusion assay; assay type: functional
# Escherichia coli [24] = assay: Antibacterial activity against Escherichia coli clinical isolate ECJH11 assessed as diameter of zone of inhibition by disk diffusion assay; assay type: functional
# Escherichia coli [25] = assay: Antibacterial activity against Escherichia coli clinical isolate ECJH12 assessed as diameter of zone of inhibition by disk diffusion assay; assay type: functional
# Escherichia coli [26] = assay: Antibacterial activity against Escherichia coli clinical isolate ECJH13 assessed as diameter of zone of inhibition by disk diffusion assay; assay type: functional
# Escherichia coli [27] = assay: Antibacterial activity against Escherichia coli clinical isolate ECJH14 assessed as diameter of zone of inhibition by disk diffusion assay; assay type: functional
# Escherichia coli [28] = assay: Antibacterial activity against Escherichia coli clinical isolate ECJH15 assessed as diameter of zone of inhibition by disk diffusion assay; assay type: functional
# Escherichia coli [29] = assay: Antibacterial activity against Escherichia coli clinical isolate ECJH16 assessed as diameter of zone of inhibition by disk diffusion assay; assay type: functional
# Escherichia coli [30] = assay: Antibacterial activity against Escherichia coli clinical isolate ECJH17 assessed as diameter of zone of inhibition by disk diffusion assay; assay type: functional
# Escherichia coli [31] = assay: Antibacterial activity against Escherichia coli clinical isolate ECJH18 assessed as diameter of zone of inhibition by disk diffusion assay; assay type: functional
# Escherichia coli [32] = assay: Antibacterial activity against Escherichia coli clinical isolate ECJH19 assessed as diameter of zone of inhibition by disk diffusion assay; assay type: functional
# Escherichia coli [33] = assay: Antibacterial activity against Escherichia coli clinical isolate ECJH20 assessed as diameter of zone of inhibition by disk diffusion assay; assay type: functional
# Escherichia coli [34] = assay: Antibacterial activity against Escherichia coli clinical isolate ECJH21 assessed as diameter of zone of inhibition by disk diffusion assay; assay type: functional
# Escherichia coli [35] = assay: Antibacterial activity against Escherichia coli clinical isolate ECJH22 assessed as diameter of zone of inhibition by disk diffusion assay; assay type: functional
# Escherichia coli [36] = assay: Antibacterial activity against Escherichia coli clinical isolate ECJH23 assessed as diameter of zone of inhibition by disk diffusion assay; assay type: functional
# Escherichia coli [37] = assay: Antibacterial activity against Escherichia coli clinical isolate ECJH25 assessed as diameter of zone of inhibition by disk diffusion assay; assay type: functional
# Escherichia coli [38] = assay: Bacteriostatic activity against Escherichia coli MTCC 443 assessed as reduction in bacterial growth at 0.5 to 2 times MIC measured upto 24 hrs by absorbance based assay; assay type: functional, organism-based
# Staphylococcus aureus [39] = assay: Bacteriostatic activity against Staphylococcus aureus MTCC 902 assessed as reduction in bacterial growth at 0.5 to 2 times MIC measured upto 24 hrs by absorbance based assay; assay type: functional, organism-based
# [40] = Hemolytic activity in human RBC assessed as hemolysis upto 500 ug/ml incubated for 1 hr by absorbance based analysis; assay type: toxicity, cell-based, Erythrocyte; details: red blood cells (RBC), up to 500 µg/mL, read-out: Activity
# [41] = Hemolytic activity in human RBC assessed as hemolysis at 1000 ug/ml incubated for 1 hr by absorbance based analysis; assay type: toxicity, cell-based, Erythrocyte; details: red blood cells (RBC), at 1000 µg/mL, read-out: Activity
# Enterococcus faecalis = assay: Antibacterial activity against Enterococcus faecalis MTCC 439 assessed as inhibition of bacterial growth at 200 ug/ml incubated overnight by spectrophotometry relative to control; assay type: functional
# Bacillus subtilis [42] = assay: Antibacterial activity against Bacillus subtilis MTCC 736 assessed as inhibition of bacterial growth at 200 ug/ml incubated overnight by spectrophotometry relative to control; assay type: functional
# Staphylococcus aureus [43] = assay: Antibacterial activity against Staphylococcus aureus MTCC 902 assessed as inhibition of bacterial growth at 200 ug/ml incubated overnight by spectrophotometry relative to control; assay type: functional
# Pseudomonas aeruginosa [44] = assay: Antibacterial activity against Pseudomonas aeruginosa MTCC 2453 assessed as inhibition of bacterial growth at 200 ug/ml incubated overnight by spectrophotometry relative to control; assay type: functional
smiles,measurement,setting,value
O=[N+]([O-])c1ccccc1/C=N/CCNc1ccnc2cc(Cl)ccc12,zone of inhibition at 500 µg/mL,Escherichia coli [1],11 mm
same,zone of inhibition at 500 µg/mL,Salmonella typhi [2],12 mm
same,MBC,Bacillus subtilis [3],128 µg/mL
same,MBC,Pseudomonas aeruginosa [4],128 µg/mL
same,diameter of the inhibition zone (DIZ),Bacillus subtilis [5],8 mm
same,diameter of the inhibition zone (DIZ),Staphylococcus aureus [6],8 mm
same,diameter of the inhibition zone (DIZ),Pseudomonas aeruginosa [7],7 mm
same,diameter of the inhibition zone (DIZ),Staphylococcus aureus [8],8 mm
same,diameter of the inhibition zone (DIZ),Pseudomonas aeruginosa [9],8 mm
same,diameter of the inhibition zone (DIZ),Pseudomonas aeruginosa [10],11 mm
same,MIC,Escherichia coli [11],8 µg/mL
same,MIC,Bacillus subtilis [12],32 µg/mL
same,fractional inhibitory concentration index (FICI),Salmonella typhi [13],0.077
same,diameter of the inhibition zone (DIZ),Escherichia coli [14],11 mm
same,diameter of the inhibition zone (DIZ),Escherichia coli [15],11 mm
same,diameter of the inhibition zone (DIZ),Escherichia coli [16],10 mm
same,diameter of the inhibition zone (DIZ),Escherichia coli [17],13 mm
same,diameter of the inhibition zone (DIZ),Escherichia coli [18],12 mm
same,diameter of the inhibition zone (DIZ),Escherichia coli [19],10 mm
same,diameter of the inhibition zone (DIZ),Escherichia coli [20],10 mm
same,diameter of the inhibition zone (DIZ),Escherichia coli [21],9 mm
same,diameter of the inhibition zone (DIZ),Escherichia coli [22],10 mm
same,diameter of the inhibition zone (DIZ),Escherichia coli [23],11 mm
same,diameter of the inhibition zone (DIZ),Escherichia coli [24],11 mm
same,diameter of the inhibition zone (DIZ),Escherichia coli [25],12 mm
same,diameter of the inhibition zone (DIZ),Escherichia coli [26],11 mm
same,diameter of the inhibition zone (DIZ),Escherichia coli [27],12 mm
same,diameter of the inhibition zone (DIZ),Escherichia coli [28],11 mm
same,diameter of the inhibition zone (DIZ),Escherichia coli [29],10 mm
same,diameter of the inhibition zone (DIZ),Escherichia coli [30],8 mm
same,diameter of the inhibition zone (DIZ),Escherichia coli [31],11 mm
same,diameter of the inhibition zone (DIZ),Escherichia coli [32],10 mm
same,diameter of the inhibition zone (DIZ),Escherichia coli [33],10 mm
same,diameter of the inhibition zone (DIZ),Escherichia coli [34],8 mm
same,diameter of the inhibition zone (DIZ),Escherichia coli [35],9 mm
same,diameter of the inhibition zone (DIZ),Escherichia coli [36],11 mm
same,diameter of the inhibition zone (DIZ),Escherichia coli [37],11 mm
same,Activity,Escherichia coli [38],Active
same,Activity,Staphylococcus aureus [39],Active
same,hemolysis at 1 h,[40],< 10%
same,"hemolysis at 1 h, 1000 ug/ml",[41],< 20%
Clc1ccc2c(NCC/N=C/c3ccc4ccccc4n3)ccnc2c1,zone of inhibition at 500 µg/mL,Escherichia coli [1],11 mm
same,zone of inhibition at 500 µg/mL,Salmonella typhi [2],11 mm
same,MBC,Bacillus subtilis [3],512 µg/mL
same,MBC,Pseudomonas aeruginosa [4],512 µg/mL
same,diameter of the inhibition zone (DIZ),Staphylococcus aureus [8],8 mm
same,diameter of the inhibition zone (DIZ),Pseudomonas aeruginosa [9],6 mm
same,diameter of the inhibition zone (DIZ),Pseudomonas aeruginosa [10],8 mm
same,MIC,Escherichia coli [11],4 µg/mL
same,MIC,Bacillus subtilis [12],32 µg/mL
same,fractional inhibitory concentration index (FICI),Salmonella typhi [13],0.093
same,inhibition at 200 µg/mL,Enterococcus faecalis,100%
same,inhibition at 200 µg/mL,Bacillus subtilis [42],100%
same,inhibition at 200 µg/mL,Staphylococcus aureus [43],100%
same,inhibition at 200 µg/mL,Pseudomonas aeruginosa [44],100%
